Data reported in US9642808B2, “Extended release compositions comprising mycophenolate sodium and processes thereof” (PANACEA BIOTECH LIMITED, priority 2007, dated 2017).
Read-outs that look alike come from different tables or passages of the source.

Legend:
[1] = cited from earlier work
[2] = 423 de novo kidney allograft recipients; cited from earlier work
[3] = pH-dependent solubility of the drug; format: physicochemical
Text: The present invention provides a stable extended release single unit dosage form composition such as matrix tablets which could provide substantially linear drug release for a prolonged duration of time during the transit through varying pHs of the GIT.
The prior art formulation approaches lead to a pharmaceutical composition which has a suitable fast disintegration time but not necessarily a suitable dissolution rate of the active agent under acidic conditions, i.e. a multiparticulate composition in the form of a tablet with an extragranularly added disintegrant will rapidly disintegrate into granules but the dissolution of the drug substance from the composition and/or the disintegrated composition under acidic conditions may be unsuitable and, low due to the solubility properties of the active agent itself. The availability of an active agent with respect to absorption, i.e. entrance into the circulatory system, is dependant on the presence of the active agent in dissolved form as it is generally accepted that only dissolved substances are capable of passing the mucous membranes in the gastro-intestinal tract. Therefore, it is important that the dissolution of the active agent is suitably fast even under acidic conditions in order to enable absorption from the stomach so that the absorption of the active agent is continuous throughout the GIT, and the bioavailability is not compromised.

[4] = controlled de novo and maintenance renal studies

solubility ([3]; pH above 6.0) | solubility ([3]; pH below 6.0) | solubility in an acidic medium ([3]; pH of from about 1 to about 3) | Compound | Adverse Events (%): Anemia [1, 4] [%] | Adverse Events (%): Constipation [1, 4] [%] | Adverse Events (%): Diarrhoea [1, 4] [%] | Adverse Events (%): Dyspepsia [1, 4] [%] | Adverse Events (%): Insomnia [1, 4] [%] | Adverse Events (%): Leukopenia [1, 4] [%] | Adverse Events (%): Nausea [1, 4] [%] | Adverse Events (%): Urinary Tract Infection [1, 4] [%] | Adverse Events (%): Vomiting [1, 4] [%] | Adverse Events (%): CMV infections ([1]; in vivo) [%] | incidence of GI adverse events [2] [%] | Adverse Events (%): CMV infections [1, 4] [%]
high solubility | poor solubility | substantially low solubility | COc1c(C)c2c(c(O)c1C/C=C(\C)CCC(=O)O)C(=O)OC2 [MPS, mycophenolate sodium] | 21.9 | 39.5 | 23.5 | 19 | 23.8 | 20.5 | 27.1 | 33.3 | 23 | 18.1 | 79.8 | 
 |  |  | COc1c(C)c2c(c(O)c1C/C=C(\C)CCC(=O)OCCN1CCOCC1)C(=O)OC2 [MMF, mycophenolate mofetil] | 21.6 | 38.0 | 24.8 | 22.5 | 23.5 | 19.2 | 29.1 | 29.1 | 20 |  | 77.1 | 20.2
